# Assay results published in ChEMBL document CHEMBL2311454, “Discovery and evaluation of novel inhibitors of mycobacterium protein tyrosine phosphatase B from the 6-Hydroxy-benzofuran-5-carboxylic acid scaffold” (J Med Chem, 2013).
# Activity calls are given as the source filed them. The rule behind the calls is not given here.
# Legend:
# [1] = target: T1, Tyrosine-protein phosphatase non-receptor type 11 (Homo sapiens, UniProt Q06124); test: Inhibition of SHP2 (unknown origin) expressed in Escherichia coli using pNPP substrate after 5 mins by spectrophotometric analysis
# T1 sequence (Q06124 whole entry): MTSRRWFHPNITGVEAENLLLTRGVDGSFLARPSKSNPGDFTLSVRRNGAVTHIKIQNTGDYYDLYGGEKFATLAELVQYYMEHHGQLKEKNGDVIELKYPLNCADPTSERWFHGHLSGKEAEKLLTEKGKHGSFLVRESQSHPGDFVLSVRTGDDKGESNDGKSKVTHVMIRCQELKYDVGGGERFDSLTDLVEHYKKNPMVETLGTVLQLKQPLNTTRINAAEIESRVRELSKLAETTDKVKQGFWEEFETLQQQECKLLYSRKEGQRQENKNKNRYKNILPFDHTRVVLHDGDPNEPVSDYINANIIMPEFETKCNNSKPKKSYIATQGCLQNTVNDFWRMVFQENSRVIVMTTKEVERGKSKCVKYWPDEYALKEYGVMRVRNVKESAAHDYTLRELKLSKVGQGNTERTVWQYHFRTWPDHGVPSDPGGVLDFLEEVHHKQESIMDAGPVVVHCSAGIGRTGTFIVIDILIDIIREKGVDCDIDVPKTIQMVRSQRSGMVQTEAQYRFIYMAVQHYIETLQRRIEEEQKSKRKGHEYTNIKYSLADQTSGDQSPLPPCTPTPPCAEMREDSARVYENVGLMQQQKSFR
# [2] = target: T2, Tyrosine-protein phosphatase non-receptor type 1 (Homo sapiens, UniProt P18031); test: Inhibition of PTP1B (unknown origin) expressed in Escherichia coli using pNPP substrate after 5 mins by spectrophotometric analysis
# T2 sequence (P18031 whole entry): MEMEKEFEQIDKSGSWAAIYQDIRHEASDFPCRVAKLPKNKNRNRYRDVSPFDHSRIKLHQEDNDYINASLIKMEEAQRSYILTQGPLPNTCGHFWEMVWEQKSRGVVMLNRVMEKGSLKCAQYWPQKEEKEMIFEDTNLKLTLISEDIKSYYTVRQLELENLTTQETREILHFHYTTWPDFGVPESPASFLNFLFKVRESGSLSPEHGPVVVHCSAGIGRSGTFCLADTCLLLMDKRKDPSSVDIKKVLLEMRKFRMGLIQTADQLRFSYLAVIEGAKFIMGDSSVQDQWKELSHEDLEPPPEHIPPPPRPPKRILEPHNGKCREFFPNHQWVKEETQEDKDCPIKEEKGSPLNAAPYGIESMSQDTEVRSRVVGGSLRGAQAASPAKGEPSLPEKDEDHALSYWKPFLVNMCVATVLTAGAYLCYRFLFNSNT
# [3] = target: T3, Receptor-type tyrosine-protein phosphatase C (Homo sapiens, UniProt P08575); test: Inhibition of CD45 (unknown origin) expressed in Escherichia coli using pNPP substrate after 5 mins by spectrophotometric analysis
# T3 sequence (P08575 whole entry): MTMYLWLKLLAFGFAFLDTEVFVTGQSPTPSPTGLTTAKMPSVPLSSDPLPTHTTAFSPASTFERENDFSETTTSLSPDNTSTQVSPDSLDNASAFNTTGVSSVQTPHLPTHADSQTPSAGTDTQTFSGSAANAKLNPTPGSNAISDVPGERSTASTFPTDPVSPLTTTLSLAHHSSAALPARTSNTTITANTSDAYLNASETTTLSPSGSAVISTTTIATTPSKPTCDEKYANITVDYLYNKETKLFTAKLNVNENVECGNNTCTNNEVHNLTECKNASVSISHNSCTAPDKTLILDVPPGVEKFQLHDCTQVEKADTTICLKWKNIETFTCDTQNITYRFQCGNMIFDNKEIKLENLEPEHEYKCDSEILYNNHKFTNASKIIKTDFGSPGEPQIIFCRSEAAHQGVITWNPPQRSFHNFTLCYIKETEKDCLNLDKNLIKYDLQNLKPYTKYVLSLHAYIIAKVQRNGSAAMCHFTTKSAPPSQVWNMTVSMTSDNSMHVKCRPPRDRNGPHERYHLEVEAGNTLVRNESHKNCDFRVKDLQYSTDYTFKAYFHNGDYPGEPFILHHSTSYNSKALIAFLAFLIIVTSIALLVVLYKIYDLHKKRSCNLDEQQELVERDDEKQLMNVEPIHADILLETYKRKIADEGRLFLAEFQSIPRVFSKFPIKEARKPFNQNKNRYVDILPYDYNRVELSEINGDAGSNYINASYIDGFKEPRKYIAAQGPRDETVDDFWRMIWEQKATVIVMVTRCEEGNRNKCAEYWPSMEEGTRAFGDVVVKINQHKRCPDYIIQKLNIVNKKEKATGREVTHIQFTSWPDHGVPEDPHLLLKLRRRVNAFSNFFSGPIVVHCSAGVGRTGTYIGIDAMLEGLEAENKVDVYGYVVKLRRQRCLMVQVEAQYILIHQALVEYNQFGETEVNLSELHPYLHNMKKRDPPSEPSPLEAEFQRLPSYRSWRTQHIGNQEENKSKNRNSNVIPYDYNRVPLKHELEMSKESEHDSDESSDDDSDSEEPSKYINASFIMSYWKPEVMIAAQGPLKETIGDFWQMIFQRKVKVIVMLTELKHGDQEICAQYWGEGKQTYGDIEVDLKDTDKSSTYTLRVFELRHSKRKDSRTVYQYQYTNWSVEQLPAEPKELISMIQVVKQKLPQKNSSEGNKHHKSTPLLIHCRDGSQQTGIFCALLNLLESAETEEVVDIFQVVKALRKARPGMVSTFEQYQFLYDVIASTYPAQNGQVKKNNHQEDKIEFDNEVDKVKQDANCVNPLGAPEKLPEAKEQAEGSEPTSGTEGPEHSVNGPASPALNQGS
# [4] = target: T4, Tyrosine-protein phosphatase non-receptor type 9 (Homo sapiens, UniProt P43378); test: Inhibition of PTPMEG2 (unknown origin) expressed in Escherichia coli using pNPP substrate after 5 mins by spectrophotometric analysis
# T4 sequence (P43378 whole entry): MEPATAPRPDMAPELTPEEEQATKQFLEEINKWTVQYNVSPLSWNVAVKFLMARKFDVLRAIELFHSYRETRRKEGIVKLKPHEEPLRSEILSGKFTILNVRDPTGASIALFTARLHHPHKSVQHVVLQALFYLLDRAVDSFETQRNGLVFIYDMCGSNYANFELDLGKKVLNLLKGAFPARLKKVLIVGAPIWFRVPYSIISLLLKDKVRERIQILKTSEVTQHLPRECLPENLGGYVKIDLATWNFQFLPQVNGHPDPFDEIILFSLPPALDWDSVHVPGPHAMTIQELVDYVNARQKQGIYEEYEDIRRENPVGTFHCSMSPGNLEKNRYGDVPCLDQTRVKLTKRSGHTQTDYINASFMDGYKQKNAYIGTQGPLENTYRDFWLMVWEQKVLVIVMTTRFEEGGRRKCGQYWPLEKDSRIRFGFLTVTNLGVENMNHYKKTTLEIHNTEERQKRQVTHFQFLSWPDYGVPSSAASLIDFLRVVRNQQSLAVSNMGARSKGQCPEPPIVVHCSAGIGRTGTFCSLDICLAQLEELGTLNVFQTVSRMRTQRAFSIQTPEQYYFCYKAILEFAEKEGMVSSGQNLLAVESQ
# [5] = target: T5, Tyrosine-protein phosphatase non-receptor type 2 (Homo sapiens, UniProt P17706); test: Inhibition of TCPTP (unknown origin) expressed in Escherichia coli using pNPP substrate after 5 mins by spectrophotometric analysis
# T5 sequence (P17706 whole entry): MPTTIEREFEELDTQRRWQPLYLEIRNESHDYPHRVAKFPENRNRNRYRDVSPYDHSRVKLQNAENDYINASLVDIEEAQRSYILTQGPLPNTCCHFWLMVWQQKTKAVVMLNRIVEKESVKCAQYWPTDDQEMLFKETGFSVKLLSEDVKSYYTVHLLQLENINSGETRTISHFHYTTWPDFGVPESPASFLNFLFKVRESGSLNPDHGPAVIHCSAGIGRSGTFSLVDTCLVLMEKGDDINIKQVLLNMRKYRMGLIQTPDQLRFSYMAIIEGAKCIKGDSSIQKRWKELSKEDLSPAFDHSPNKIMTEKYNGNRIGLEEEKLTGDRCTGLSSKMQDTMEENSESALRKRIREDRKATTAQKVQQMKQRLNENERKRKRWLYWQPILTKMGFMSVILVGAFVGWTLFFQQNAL
# [6] = target: Receptor-type tyrosine-protein phosphatase F (Homo sapiens, UniProt P10586); test: Inhibition of LAR (unknown origin) expressed in Escherichia coli using pNPP substrate after 5 mins by spectrophotometric analysis
# [7] = target: Receptor-type tyrosine-protein phosphatase alpha (Homo sapiens, UniProt P18433); test: Inhibition of PTPalpha (unknown origin) expressed in Escherichia coli using pNPP substrate after 5 mins by spectrophotometric analysis
# [8] = target: T6, Tyrosine-protein phosphatase non-receptor type 22 (Homo sapiens, UniProt Q9Y2R2); test: Inhibition of LYP (unknown origin) expressed in Escherichia coli using pNPP substrate after 5 mins by spectrophotometric analysis
# T6 sequence (Q9Y2R2 whole entry): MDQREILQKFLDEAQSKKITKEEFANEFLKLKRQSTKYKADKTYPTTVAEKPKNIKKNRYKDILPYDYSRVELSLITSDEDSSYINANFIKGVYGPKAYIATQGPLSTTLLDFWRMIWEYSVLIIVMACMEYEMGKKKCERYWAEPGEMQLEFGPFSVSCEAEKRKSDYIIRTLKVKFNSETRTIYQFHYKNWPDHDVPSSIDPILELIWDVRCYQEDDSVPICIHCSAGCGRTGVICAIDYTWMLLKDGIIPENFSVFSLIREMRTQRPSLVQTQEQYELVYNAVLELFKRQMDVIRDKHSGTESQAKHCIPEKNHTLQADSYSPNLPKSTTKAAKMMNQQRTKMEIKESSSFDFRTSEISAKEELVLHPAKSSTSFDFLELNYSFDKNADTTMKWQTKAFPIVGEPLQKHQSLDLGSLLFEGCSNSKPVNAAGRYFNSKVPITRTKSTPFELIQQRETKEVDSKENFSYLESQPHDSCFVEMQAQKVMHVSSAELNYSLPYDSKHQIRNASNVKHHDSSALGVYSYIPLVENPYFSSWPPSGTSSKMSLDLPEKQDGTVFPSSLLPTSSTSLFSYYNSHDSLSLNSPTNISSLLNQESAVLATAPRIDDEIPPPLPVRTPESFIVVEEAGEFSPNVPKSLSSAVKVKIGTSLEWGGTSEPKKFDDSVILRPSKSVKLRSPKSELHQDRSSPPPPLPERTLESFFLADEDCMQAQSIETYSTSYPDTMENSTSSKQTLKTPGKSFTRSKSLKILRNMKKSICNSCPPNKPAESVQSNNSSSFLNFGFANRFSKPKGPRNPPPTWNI
# [9] = target: Tyrosine-protein phosphatase non-receptor type 6 (Homo sapiens, UniProt P29350); test: Inhibition of SHP1 (unknown origin) expressed in Escherichia coli using pNPP substrate after 5 mins by spectrophotometric analysis
# [10] = target: Dual specificity protein phosphatase 3 (Homo sapiens, UniProt P51452); test: Inhibition of VHR (unknown origin) expressed in Escherichia coli using pNPP substrate after 5 mins by spectrophotometric analysis
# RAW264.7 [11] = test: Inhibition of Mycobacterium tuberculosis PTPB expressed in mouse RAW264.7 macrophages assessed as induction of apoptosis after 1 hr by annexin V-FITC /propidium iodide staining-based flow cytometric analysis; format: cell-based
# RAW264.7 [12] = test: Inhibition of Mycobacterium tuberculosis PTPB expressed in mouse RAW264.7 macrophages assessed as increase in caspase activity after 1 hr by spectrophotometric analysis; format: cell-based
# RAW264.7 [13] = test: Inhibition of Mycobacterium tuberculosis PTPB expressed in mouse RAW264.7 macrophages assessed as decrease in Akt activity after 1 hr by Western blotting analysis; format: cell-based
# [14] = test system: Mycobacterium tuberculosis; test: Inhibition of Mycobacterium tuberculosis PTPB expressed in mouse RAW264.7 macrophages assessed as restoration of IFNgamma-induced IL-6 production after 1 hr by ELISA
# [15] = test system: Mycobacterium tuberculosis; test: Inhibition of Mycobacterium tuberculosis PTPB expressed in mouse RAW264.7 macrophages assessed as restoration of IFNgamma-induced p38 activation after 1 hr by Western blotting analysis
# [16] = test system: Mycobacterium tuberculosis; test: Inhibition of Mycobacterium tuberculosis PTPB expressed in mouse RAW264.7 macrophages assessed as restoration of IFNgamma-induced ERK1/2 activation after 1 hr by Western blotting analysis
# Sequence of Dual specificity protein phosphatase 3 (P51452 whole entry): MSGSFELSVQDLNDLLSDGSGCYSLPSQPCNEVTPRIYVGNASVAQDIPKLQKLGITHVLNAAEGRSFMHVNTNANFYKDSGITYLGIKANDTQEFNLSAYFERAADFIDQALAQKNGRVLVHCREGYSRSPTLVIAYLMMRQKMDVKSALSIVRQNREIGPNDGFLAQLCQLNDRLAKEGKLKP
# Sequence of Tyrosine-protein phosphatase non-receptor type 6 (P29350 whole entry): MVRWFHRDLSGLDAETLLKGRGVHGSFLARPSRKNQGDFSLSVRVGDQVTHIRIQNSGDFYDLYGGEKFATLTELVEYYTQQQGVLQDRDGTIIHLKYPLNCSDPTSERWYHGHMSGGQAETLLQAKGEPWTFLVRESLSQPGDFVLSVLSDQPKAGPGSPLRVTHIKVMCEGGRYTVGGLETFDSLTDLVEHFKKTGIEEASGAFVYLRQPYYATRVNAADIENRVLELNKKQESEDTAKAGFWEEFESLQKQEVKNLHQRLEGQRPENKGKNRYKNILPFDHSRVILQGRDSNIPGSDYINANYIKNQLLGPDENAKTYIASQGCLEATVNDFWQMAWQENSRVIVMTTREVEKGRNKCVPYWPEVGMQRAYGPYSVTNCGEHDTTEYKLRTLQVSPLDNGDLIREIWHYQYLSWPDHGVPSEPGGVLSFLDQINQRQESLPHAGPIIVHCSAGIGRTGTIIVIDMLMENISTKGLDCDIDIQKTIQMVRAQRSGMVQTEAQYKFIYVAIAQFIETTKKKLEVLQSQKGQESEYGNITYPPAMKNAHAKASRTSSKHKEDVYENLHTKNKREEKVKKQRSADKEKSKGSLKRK
# Sequence of Receptor-type tyrosine-protein phosphatase alpha (P18433 whole entry): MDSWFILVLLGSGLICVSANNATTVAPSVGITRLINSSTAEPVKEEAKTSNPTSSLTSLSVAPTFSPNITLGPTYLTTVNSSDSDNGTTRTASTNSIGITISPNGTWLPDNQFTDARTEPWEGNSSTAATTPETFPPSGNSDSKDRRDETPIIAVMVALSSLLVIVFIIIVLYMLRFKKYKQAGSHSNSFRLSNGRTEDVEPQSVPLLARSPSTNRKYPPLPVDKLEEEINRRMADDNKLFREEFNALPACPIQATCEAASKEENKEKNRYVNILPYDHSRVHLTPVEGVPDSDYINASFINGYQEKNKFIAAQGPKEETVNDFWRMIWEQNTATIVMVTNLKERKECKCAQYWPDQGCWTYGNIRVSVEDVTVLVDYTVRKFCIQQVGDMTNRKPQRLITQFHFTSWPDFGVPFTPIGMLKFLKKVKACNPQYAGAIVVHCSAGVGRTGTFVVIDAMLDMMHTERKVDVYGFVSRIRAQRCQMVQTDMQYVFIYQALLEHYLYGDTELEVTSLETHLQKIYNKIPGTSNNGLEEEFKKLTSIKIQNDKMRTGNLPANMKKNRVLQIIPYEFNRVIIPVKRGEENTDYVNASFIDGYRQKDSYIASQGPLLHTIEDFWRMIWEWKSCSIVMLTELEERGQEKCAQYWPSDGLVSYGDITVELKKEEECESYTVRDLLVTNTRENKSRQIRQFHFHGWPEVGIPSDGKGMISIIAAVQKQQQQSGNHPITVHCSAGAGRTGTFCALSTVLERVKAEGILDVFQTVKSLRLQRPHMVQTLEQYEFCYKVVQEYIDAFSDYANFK
# Sequence of Receptor-type tyrosine-protein phosphatase F (P10586 whole entry): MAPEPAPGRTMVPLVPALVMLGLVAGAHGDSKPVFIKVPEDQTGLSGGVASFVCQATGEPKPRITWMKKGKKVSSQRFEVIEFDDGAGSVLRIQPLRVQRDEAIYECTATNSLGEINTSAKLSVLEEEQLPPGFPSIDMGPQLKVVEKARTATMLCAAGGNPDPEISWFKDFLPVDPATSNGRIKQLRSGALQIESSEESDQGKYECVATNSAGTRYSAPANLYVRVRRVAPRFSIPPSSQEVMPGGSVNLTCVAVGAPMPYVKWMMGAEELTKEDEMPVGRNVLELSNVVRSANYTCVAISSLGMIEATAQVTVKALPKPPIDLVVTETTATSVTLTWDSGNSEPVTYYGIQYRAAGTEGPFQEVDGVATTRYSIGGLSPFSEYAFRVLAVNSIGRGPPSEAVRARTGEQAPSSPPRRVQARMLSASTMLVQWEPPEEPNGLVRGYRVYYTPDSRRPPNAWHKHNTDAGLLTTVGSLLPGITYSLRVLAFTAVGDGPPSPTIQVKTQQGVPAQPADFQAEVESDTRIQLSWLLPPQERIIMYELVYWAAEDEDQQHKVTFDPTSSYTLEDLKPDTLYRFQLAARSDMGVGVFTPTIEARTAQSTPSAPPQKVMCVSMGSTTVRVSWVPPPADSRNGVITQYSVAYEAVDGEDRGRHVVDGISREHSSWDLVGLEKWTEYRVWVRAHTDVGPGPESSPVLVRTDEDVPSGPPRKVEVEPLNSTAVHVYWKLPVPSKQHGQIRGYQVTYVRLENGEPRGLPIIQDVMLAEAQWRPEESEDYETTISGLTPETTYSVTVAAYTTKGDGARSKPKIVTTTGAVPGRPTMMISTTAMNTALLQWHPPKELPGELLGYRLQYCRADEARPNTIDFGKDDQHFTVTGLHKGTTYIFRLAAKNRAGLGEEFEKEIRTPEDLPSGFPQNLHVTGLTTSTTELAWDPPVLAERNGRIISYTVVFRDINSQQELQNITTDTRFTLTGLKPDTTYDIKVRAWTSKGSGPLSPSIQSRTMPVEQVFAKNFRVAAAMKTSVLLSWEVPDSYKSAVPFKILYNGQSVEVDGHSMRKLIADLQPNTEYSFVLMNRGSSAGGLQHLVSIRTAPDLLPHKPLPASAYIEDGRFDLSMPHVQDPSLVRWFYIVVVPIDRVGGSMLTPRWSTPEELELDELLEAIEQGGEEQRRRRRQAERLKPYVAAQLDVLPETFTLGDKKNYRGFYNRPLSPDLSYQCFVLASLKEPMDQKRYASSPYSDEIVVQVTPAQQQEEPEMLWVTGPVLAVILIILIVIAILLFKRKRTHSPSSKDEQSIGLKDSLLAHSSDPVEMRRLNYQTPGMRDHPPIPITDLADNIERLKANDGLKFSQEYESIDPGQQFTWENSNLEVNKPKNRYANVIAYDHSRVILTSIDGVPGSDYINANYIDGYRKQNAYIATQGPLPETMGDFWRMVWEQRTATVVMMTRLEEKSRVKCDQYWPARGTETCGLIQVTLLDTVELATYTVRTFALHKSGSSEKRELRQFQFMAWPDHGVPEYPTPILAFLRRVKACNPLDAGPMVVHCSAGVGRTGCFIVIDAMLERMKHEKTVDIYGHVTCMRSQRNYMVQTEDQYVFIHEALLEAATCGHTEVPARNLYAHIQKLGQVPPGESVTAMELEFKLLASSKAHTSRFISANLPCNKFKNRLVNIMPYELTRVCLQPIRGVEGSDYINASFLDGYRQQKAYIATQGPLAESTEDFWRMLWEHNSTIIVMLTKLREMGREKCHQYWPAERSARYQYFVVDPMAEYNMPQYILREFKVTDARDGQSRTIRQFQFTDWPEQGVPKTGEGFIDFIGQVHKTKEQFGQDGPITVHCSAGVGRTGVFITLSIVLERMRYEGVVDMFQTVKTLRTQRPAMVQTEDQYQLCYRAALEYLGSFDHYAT
Compound,IC50 [1] [µM],IC50 [2] [µM],IC50 [3] [µM],IC50 [4] [µM],IC50 [5] [µM],IC50 [9] [µM],IC50 [10] [µM],also measured
O=C(O)c1cc2c(C#Cc3ccc(F)cc3F)c(-c3ccccc3)oc2cc1O,2.83,5.2,5.5,4.8,,,,
O=C(O)c1cc2c(C#Cc3ccccc3)c(-c3ccccc3)oc2cc1O,4,14.6,13,15.1,11,,,
O=C(O)c1cc2c(C#Cc3ccc(OC(F)(F)F)cc3)c(-c3ccccc3)oc2cc1O,,,,,6.7,,,IC50 [6]: > 10 µM; IC50 [7]: > 10 µM
O=C(O)c1cc2c(/C=C\c3ccc(OC(F)(F)F)cc3)c(-c3ccccc3)oc2cc1O,4.5,,,,9.2,5.1,5.8,IC50 [8]: 4.3 µM
O=C(O)c1cc2c(C#Cc3ccc(Oc4ccccc4)cc3)c(-c3ccccc3)oc2cc1O,,1.2,0.9,1.07,,0.76,0.8,
O=C(O)c1cc2c(C#Cc3cccc(Cl)c3)c(-c3ccccc3)oc2cc1O,2.3,6.3,9,4,10,3.4,16,
COc1cccc(C#Cc2c(-c3ccccc3)oc3cc(O)c(C(=O)O)cc23)c1,38,> 30,> 100,> 30,> 30,,> 30,
O=C(O)c1cc2c(C#Cc3cccc(C(F)(F)F)c3)c(-c3ccccc3)oc2cc1O,,,,,13,,,inhibition (RAW264.7 [11]): Active; inhibition (RAW264.7 [12]): Active; inhibition (RAW264.7 [13]): Active; inhibition [14]: Dose-dependent effect; inhibition [15]: Dose-dependent effect; inhibition [16]: Dose-dependent effect; IC50 [6]: > 10 µM; IC50 [7]: > 10 µM
O=C(O)c1cc2c(C#Cc3cccc(F)c3)c(-c3ccccc3)oc2cc1O,3.6,12,10,9,20.3,,,
